Laboratory results as given in ChEMBL document CHEMBL4346657, “Anticancer activity, dual prooxidant/antioxidant effect and apoptosis induction profile of new bichalcophene-5-carboxamidines” (Eur J Med Chem, 2019).
Active and inactive are the calls of the source. The calls are words filed in the database; no cut-off is given here.

Experiments:
HCT-116 [1] = experiment: Induction of apoptosis in human HCT116 cells assessed as increase in caspase 9 mRNA expression at 100 nM after 6 hrs hrs by SYBR green dye-based qRT-PCR analysis relative to control; format: functional
Erythrocyte [2] = experiment: Haemolytic activity in human erythrocytes assessed as induction of hemolysis at 1.25 mM after 30 mins relative to H202; format: cell-based; conditions: erythrocyte, 0.5 h, 1250 µM
A549 = experiment: Antiproliferative activity against human A549/ATCC cells assessed as growth inhibition after 48 hrs by sulforhodamine B assay; format: functional; conditions: A549, 48 h
SR = experiment: Antiproliferative activity against human SR cells assessed as growth inhibition after 48 hrs by sulforhodamine B assay; format: functional
DU-145 = experiment: Antiproliferative activity against human DU145 cells assessed as growth inhibition after 48 hrs by sulforhodamine B assay; format: functional; conditions: DU-145, 48 h
UACC-257 = experiment: Antiproliferative activity against human UACC257 cells assessed as growth inhibition after 48 hrs by sulforhodamine B assay; format: functional; conditions: UACC-257, 48 h
SK-OV-3 = experiment: Antiproliferative activity against human SKOV3 cells assessed as growth inhibition after 48 hrs by sulforhodamine B assay; format: functional; conditions: SK-OV-3, 48 h
Malme-3M = experiment: Antiproliferative activity against human MALME-3M cells assessed as growth inhibition after 48 hrs by sulforhodamine B assay; format: functional
SF-539 = experiment: Antiproliferative activity against human SF539 cells assessed as growth inhibition after 48 hrs by sulforhodamine B assay; format: functional; conditions: SF-539, 48 h
[3] = Antioxidant activity assessed as hydroxyl radical scavenging activity after 1 hr by salicylic acid-based Fenton reaction assay; format: functional
Erythrocyte [4] = experiment: (§1) Haemolytic activity in human erythrocytes assessed as induction of hemolysis at 2.5 mM after 30 mins relative to H202; format: cell-based; conditions: erythrocyte, 0.5 h, 2500 µM
MDA-MB-468 = experiment: Antiproliferative activity against human MDA-MB-468 cells assessed as growth inhibition after 48 hrs by sulforhodamine B assay; format: functional; conditions: MDA-MB-468, 48 h
LOX IMVI = experiment: Antiproliferative activity against human LOXIMVI cells assessed as growth inhibition after 48 hrs by sulforhodamine B assay; format: functional
SW-620 = experiment: Antiproliferative activity against human SW620 cells assessed as growth inhibition after 48 hrs by sulforhodamine B assay; format: functional; conditions: SW-620, 48 h
TK-10 = experiment: Antiproliferative activity against human TK10 cells assessed as growth inhibition after 48 hrs by sulforhodamine B assay; format: functional; conditions: TK-10, 48 h
[5] = Antioxidant activity assessed as ABTS radical scavenging activity by spectrophotometric analysis relative to control; format: functional; set-up: concentration or dose not given beside the values; conditions: dose or concentration not given here
RPMI-8226 = experiment: Antiproliferative activity against human RPMI8226 cells assessed as growth inhibition after 48 hrs by sulforhodamine B assay; format: functional; conditions: RPMI-8226, 48 h
SF-268 = experiment: Antiproliferative activity against human SF268 cells assessed as growth inhibition after 48 hrs by sulforhodamine B assay; format: functional; conditions: SF-268, 48 h
[6] = Haemolytic activity in human erythrocytes assessed as induction of hemolysis at 10 mM after 30 mins relative to H202; format: cell-based, Erythrocyte; conditions: read-out: Activity
OVCAR-4 = experiment: Antiproliferative activity against human OVCAR4 cells assessed as growth inhibition after 48 hrs by sulforhodamine B assay; format: functional; conditions: OVCAR-4, 48 h
[7] = Antioxidant activity assessed as DPPH radical scavenging activity incubated in dark for 30 mins by spectrophotometric method relative to ascorbic acid; format: functional
[8] = Pro-oxidant activity assessed as increase in bleomycin-Fe2+ induced calf thymus DNA damage at 2 mM after 1 hr by thiobarbituric acid based absorbance analysis
T47D = experiment: Antiproliferative activity against human T47D cells assessed as growth inhibition after 48 hrs by sulforhodamine B assay; format: functional
HCT-116 [9] = experiment: Antiproliferative activity against human HCT116 cells assessed as growth inhibition after 48 hrs by sulforhodamine B assay; format: functional; conditions: HCT-116, 48 h
HCC 2998 = experiment: Antiproliferative activity against human HCC2998 cells assessed as growth inhibition after 48 hrs by sulforhodamine B assay; format: functional; conditions: HCC 2998, 48 h
[10] = Antioxidant activity assessed as DPPH radical scavenging activity incubated in dark for 30 mins by spectrophotometric method relative to control; format: functional; set-up: concentration or dose not given beside the values
HT-29 = experiment: Antiproliferative activity against human HT-29 cells assessed as growth inhibition after 48 hrs by sulforhodamine B assay; format: functional; conditions: HT-29, 48 h
HOP-62 = experiment: Antiproliferative activity against human HOP62 cells assessed as growth inhibition after 48 hrs by sulforhodamine B assay; format: functional; conditions: HOP-62, 48 h
MOLT-4 = experiment: Antiproliferative activity against human MOLT4 cells assessed as growth inhibition after 48 hrs by sulforhodamine B assay; format: functional; conditions: MOLT-4, 48 h
[11] = system: Panel NCI-60 (60 carcinoma cell lines); experiment: Antiproliferative activity against human NCI60 cells assessed as growth inhibition at 10 uM after 48 hrs by sulforhodamine B assay; format: functional; conditions: read-out: GI
MCF7 = experiment: Antiproliferative activity against human MCF7 cells assessed as growth inhibition after 48 hrs by sulforhodamine B assay; format: functional; conditions: MCF7, 48 h
HCT-116 [12] = experiment: Induction of apoptosis in human HCT116 cells assessed as increase in caspase 3 mRNA expression at 100 nM after 6 hrs hrs by SYBR green dye-based qRT-PCR analysis relative to control; format: functional
UACC-62 = experiment: Antiproliferative activity against human UACC62 cells assessed as growth inhibition after 48 hrs by sulforhodamine B assay; format: functional; conditions: UACC-62, 48 h
U-251 = experiment: Antiproliferative activity against human U251 cells assessed as growth inhibition after 48 hrs by sulforhodamine B assay; format: functional; conditions: U-251, 48 h
OVCAR-8 = experiment: Antiproliferative activity against human OVCAR8 cells assessed as growth inhibition after 48 hrs by sulforhodamine B assay; format: functional; conditions: OVCAR-8, 48 h
NCI-H23 = experiment: Antiproliferative activity against human NCI-H23 cells assessed as growth inhibition after 48 hrs by sulforhodamine B assay; format: functional; conditions: NCI-H23, 48 h
[13] = as §1; format: cell-based, Erythrocyte; conditions: erythrocytes, read-out: Activity
HOP-92 = experiment: Antiproliferative activity against human HOP92 cells assessed as growth inhibition after 48 hrs by sulforhodamine B assay; format: functional; conditions: HOP-92, 48 h

N=C(N)c1ccc(-c2ccc(-c3ccc4ccccc4c3)s2)s1
fold change (FC) (HCT-116 [1]): 2.33 | Activity (Erythrocyte [2]): Non-Toxic | GI50 (A549): 2.03 µM | GI50 (SR): 1.05 µM | GI50 (DU-145): 1.83 µM | GI50 (UACC-257): 16.1 µM | GI50 (SK-OV-3): 20.2 µM | GI50 (Malme-3M): 3.1 µM | GI50 (SF-539): 1.97 µM | Activity [3]: Active | Activity (Erythrocyte [4]): Non-Toxic | GI50 (MDA-MB-468): 2.38 µM | GI50 (LOX IMVI): 1.71 µM | GI50 (SW-620): 1.91 µM | GI50 (TK-10): 2.23 µM | inhibition [5]: 72.8% | GI50 (RPMI-8226): 2.3 µM | GI50 (SF-268): 2.25 µM | hemolysis at 0.5 h, 10000 µM [6]: 21.1% | GI50 (OVCAR-4): 1.91 µM | fold change (FC) [7]: 0.6 | Activity [8]: Active | GI50 (T47D): 1.95 µM | GI50 (HCT-116 [9]): 1.77 µM | GI50 (HCC 2998): 2.02 µM | inhibition [10]: 54.6% | GI50 (HT-29): 1.71 µM | GI50 (HOP-62): 2.08 µM | GI50 (MOLT-4): 1.47 µM | inhibition of growth at 10 µM [11]: 96.7% | GI50 (MCF7): 1.75 µM | fold change (FC) (HCT-116 [12]): 2.59 | GI50 (UACC-62): 2.1 µM | GI50 (U-251): 1.81 µM | GI50 (OVCAR-8): 2.27 µM | GI50 (NCI-H23): 2.95 µM

N=C(N)c1ccc(-c2ccc(-c3ccc(Cl)cc3)s2)s1
fold change (FC) (HCT-116 [1]): 2.91 | Activity (Erythrocyte [2]): Non-Toxic | GI50 (A549): 2.11 µM | GI50 (SR): 0.32 µM | GI50 (DU-145): 1.62 µM | GI50 (UACC-257): 2.78 µM | GI50 (SK-OV-3): 1.7 µM | GI50 (Malme-3M): 1.81 µM | GI50 (SF-539): 1.63 µM | Activity [3]: Active | hemolysis at 0.5 h, 2500 µM [13]: 14.3% | GI50 (MDA-MB-468): 1.98 µM | GI50 (LOX IMVI): 1.31 µM | GI50 (SW-620): 1.74 µM | GI50 (TK-10): 1.96 µM | inhibition [5]: 81.2% | GI50 (RPMI-8226): 2.04 µM | GI50 (SF-268): 1.77 µM | hemolysis at 0.5 h, 10000 µM [6]: 81.7% | GI50 (OVCAR-4): 1.67 µM | fold change (FC) [7]: 0.8 | Activity [8]: Active | GI50 (HOP-92): 1.81 µM | GI50 (T47D): 1.55 µM | GI50 (HCT-116 [9]): 1.74 µM | GI50 (HCC 2998): 1.57 µM | inhibition [10]: 72.9% | GI50 (HT-29): 1.43 µM | GI50 (HOP-62): 1.75 µM | GI50 (MOLT-4): 1.78 µM | inhibition of growth at 10 µM [11]: -57.2% | GI50 (MCF7): 1.29 µM | fold change (FC) (HCT-116 [12]): 3 | GI50 (UACC-62): 1.8 µM | GI50 (U-251): 1.83 µM | GI50 (OVCAR-8): 2.48 µM | GI50 (NCI-H23): 1.62 µM

COc1cc(OC)cc(-c2ccc(-c3ccc(C(=N)N)o3)o2)c1
fold change (FC) (HCT-116 [1]): 1.03 | Activity (Erythrocyte [2]): Non-Toxic | GI50 (A549): 3.78 µM | GI50 (SR): 1.88 µM | GI50 (DU-145): 4.28 µM | GI50 (UACC-257): 2.41 µM | GI50 (SK-OV-3): 14.9 µM | GI50 (Malme-3M): 2.04 µM | GI50 (SF-539): 1.83 µM | Activity [3]: Active | Activity (Erythrocyte [4]): Non-Toxic | GI50 (MDA-MB-468): 2.41 µM | GI50 (LOX IMVI): 1.79 µM | GI50 (SW-620): 1.88 µM | GI50 (TK-10): 13.4 µM | inhibition [5]: 36% | GI50 (RPMI-8226): 2.25 µM | GI50 (SF-268): 3.4 µM | hemolysis at 0.5 h, 10000 µM [6]: 19.3% | GI50 (OVCAR-4): 3.51 µM | fold change (FC) [7]: 0.3 | Activity [8]: Active | GI50 (T47D): 2.08 µM | GI50 (HCT-116 [9]): 2.51 µM | GI50 (HCC 2998): 2.05 µM | inhibition [10]: 31% | GI50 (HT-29): 2.77 µM | GI50 (HOP-62): 5.65 µM | GI50 (MOLT-4): 2.44 µM | inhibition of growth at 10 µM [11]: 55.9% | GI50 (MCF7): 1.8 µM | fold change (FC) (HCT-116 [12]): 4.1 | GI50 (UACC-62): 1.98 µM | GI50 (U-251): 2.45 µM | GI50 (OVCAR-8): 3.75 µM | GI50 (NCI-H23): 9.25 µM

COc1cc(-c2ccc(-c3ccc(C(=N)N)s3)s2)cc(OC)c1OC
fold change (FC) (HCT-116 [1]): 2.81 | Activity (Erythrocyte [2]): Non-Toxic | GI50 (A549): 2.14 µM | GI50 (SR): 1.83 µM | GI50 (DU-145): 2.32 µM | GI50 (UACC-257): 2.22 µM | GI50 (SK-OV-3): 5.15 µM | GI50 (Malme-3M): 1.74 µM | GI50 (SF-539): 1.58 µM | Activity [3]: Active | hemolysis at 0.5 h, 2500 µM [13]: 11.3% | GI50 (MDA-MB-468): 1.82 µM | GI50 (LOX IMVI): 1.61 µM | GI50 (SW-620): 1.91 µM | GI50 (TK-10): 2.7 µM | inhibition [5]: 75.4% | GI50 (RPMI-8226): 2.46 µM | GI50 (SF-268): 1.74 µM | hemolysis at 0.5 h, 10000 µM [6]: 79.7% | GI50 (OVCAR-4): 1.82 µM | fold change (FC) [7]: 0.7 | Activity [8]: Active | GI50 (HOP-92): 1.14 µM | GI50 (T47D): 1.7 µM | GI50 (HCT-116 [9]): 1.73 µM | GI50 (HCC 2998): 1.76 µM | inhibition [10]: 64.1% | GI50 (HT-29): 1.24 µM | GI50 (HOP-62): 1.97 µM | GI50 (MOLT-4): 2.4 µM | inhibition of growth at 10 µM [11]: 73.5% | GI50 (MCF7): 1.66 µM | fold change (FC) (HCT-116 [12]): 2.67 | GI50 (UACC-62): 1.7 µM | GI50 (U-251): 1.99 µM | GI50 (OVCAR-8): 2.62 µM | GI50 (NCI-H23): 2.61 µM
